In ChEMBL document CHEMBL1201862, “PubChem BioAssay data set” (2004):
Activity calls are given as the source filed them.

What was measured:
[1] = molecular target: T1, Short transient receptor potential channel 4 (Mus musculus, UniProt Q9QUQ5); assay: mouse TRPC4 channel inhibitors, dose response, cell-based, HEK293 TRPC4/mu-opioid, Fluo-4 calcium (AID 434942); type: functional;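 further: potency of inhibitors blocking the TRPC4 calcium response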
T1 sequence (Q9QUQ5 whole entry): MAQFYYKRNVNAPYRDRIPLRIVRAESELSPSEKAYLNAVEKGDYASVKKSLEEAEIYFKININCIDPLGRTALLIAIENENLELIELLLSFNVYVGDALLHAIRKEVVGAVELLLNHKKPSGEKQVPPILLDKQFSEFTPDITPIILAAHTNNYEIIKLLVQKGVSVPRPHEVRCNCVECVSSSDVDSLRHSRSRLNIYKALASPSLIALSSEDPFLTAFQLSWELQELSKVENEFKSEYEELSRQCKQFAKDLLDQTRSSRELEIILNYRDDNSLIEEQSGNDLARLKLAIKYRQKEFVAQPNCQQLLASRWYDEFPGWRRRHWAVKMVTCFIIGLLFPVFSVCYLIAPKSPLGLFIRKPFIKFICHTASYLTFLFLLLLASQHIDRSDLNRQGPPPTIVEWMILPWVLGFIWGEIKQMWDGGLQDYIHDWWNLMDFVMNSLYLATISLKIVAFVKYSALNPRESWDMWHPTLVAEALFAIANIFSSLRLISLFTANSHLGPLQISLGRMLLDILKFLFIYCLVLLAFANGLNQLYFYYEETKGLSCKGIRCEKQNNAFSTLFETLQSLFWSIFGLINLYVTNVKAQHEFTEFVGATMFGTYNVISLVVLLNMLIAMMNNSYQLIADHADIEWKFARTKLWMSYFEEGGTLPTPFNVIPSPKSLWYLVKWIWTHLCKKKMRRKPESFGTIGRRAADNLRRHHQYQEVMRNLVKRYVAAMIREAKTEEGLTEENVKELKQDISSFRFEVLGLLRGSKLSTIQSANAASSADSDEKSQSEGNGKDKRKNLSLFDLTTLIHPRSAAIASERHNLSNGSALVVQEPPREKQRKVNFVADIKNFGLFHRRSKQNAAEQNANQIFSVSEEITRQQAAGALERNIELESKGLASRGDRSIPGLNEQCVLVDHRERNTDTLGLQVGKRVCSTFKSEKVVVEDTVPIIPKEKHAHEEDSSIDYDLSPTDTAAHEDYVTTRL

[2] = inhibitors of intracellular T. cruzi replication, confirmation, NIH3T3 host cells, beta-gal luminescence (AID 2044); type: functional, cell-based;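 further: intracellular parasites grown in NIH/3T3 mouse fibroblasts as host cells; luminescent beta-galactosidase reporter signal from transgenic T. cruzi replicating inside host cells; inhibitors lower the luminescence signal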
[3] = cytotoxicity toward NIH3T3 fibroblasts, dose response, counter-screen, cell-based, ATP luminescence, mouse fibroblasts (AID 2010); type: functional;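 further: cells exposed to compound for about 90 hours before reading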
Nonstructural protein 1 = Nonstructural protein 1 (Influenza A virus, UniProt Q194T2); type: functional, Influenza A virus (A/California/07/2009(H1N1))
Chain of Nonstructural protein 1 (Q194T2 whole entry): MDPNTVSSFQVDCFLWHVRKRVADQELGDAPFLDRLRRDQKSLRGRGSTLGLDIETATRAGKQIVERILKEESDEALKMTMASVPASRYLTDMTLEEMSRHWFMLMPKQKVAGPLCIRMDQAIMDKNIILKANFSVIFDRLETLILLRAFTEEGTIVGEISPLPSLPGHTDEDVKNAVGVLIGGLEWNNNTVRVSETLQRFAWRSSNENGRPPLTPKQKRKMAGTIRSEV

[4] = molecular target: T2, Histone-lysine N-methyltransferase NSD2 (Homo sapiens, UniProt O96028); type: biochemical
T2 sequence (O96028 whole entry): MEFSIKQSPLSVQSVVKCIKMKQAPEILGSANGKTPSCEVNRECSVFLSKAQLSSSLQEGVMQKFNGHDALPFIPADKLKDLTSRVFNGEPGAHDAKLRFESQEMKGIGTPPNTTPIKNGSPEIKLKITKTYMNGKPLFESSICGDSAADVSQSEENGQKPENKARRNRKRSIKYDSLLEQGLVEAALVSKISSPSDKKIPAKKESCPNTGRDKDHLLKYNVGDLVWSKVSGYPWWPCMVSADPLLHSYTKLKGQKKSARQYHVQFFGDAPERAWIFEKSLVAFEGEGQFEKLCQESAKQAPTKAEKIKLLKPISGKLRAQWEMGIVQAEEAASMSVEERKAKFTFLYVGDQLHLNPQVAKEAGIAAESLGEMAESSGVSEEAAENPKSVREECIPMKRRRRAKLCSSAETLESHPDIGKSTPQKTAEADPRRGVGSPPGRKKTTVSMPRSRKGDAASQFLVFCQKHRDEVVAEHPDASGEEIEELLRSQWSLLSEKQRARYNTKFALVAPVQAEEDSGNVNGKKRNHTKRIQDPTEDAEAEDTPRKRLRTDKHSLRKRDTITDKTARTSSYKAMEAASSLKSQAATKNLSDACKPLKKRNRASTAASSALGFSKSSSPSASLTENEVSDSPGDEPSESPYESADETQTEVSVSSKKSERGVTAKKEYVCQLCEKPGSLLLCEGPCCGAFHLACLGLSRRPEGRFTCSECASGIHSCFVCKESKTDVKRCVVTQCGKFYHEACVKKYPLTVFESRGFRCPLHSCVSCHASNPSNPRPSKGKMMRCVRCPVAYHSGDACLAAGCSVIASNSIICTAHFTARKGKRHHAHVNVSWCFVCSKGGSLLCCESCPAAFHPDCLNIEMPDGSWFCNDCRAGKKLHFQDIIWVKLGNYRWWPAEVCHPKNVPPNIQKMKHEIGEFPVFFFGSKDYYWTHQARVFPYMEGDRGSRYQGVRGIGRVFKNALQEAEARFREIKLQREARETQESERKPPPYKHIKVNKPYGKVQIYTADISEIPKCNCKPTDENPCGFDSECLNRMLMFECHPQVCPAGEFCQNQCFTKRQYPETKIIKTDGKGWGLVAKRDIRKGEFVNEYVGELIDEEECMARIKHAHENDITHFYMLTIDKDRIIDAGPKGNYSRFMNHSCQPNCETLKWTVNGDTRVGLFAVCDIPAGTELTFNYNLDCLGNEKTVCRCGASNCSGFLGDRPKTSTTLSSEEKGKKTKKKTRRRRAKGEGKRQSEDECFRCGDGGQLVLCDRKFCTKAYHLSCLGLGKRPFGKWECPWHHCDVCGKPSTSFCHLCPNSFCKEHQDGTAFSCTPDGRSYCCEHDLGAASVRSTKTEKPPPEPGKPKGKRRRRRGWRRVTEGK

[5] = molecular target: Glucose-6-phosphate 1-dehydrogenase (Homo sapiens, UniProt P11413); assay: human G6PD enzyme inhibitors, dose response, selectivity assay for P. falciparum G6PD inhibitor project, biochemical, fluorescence (AID 504792); type: functional
Chain of Glucose-6-phosphate 1-dehydrogenase (P11413 whole entry): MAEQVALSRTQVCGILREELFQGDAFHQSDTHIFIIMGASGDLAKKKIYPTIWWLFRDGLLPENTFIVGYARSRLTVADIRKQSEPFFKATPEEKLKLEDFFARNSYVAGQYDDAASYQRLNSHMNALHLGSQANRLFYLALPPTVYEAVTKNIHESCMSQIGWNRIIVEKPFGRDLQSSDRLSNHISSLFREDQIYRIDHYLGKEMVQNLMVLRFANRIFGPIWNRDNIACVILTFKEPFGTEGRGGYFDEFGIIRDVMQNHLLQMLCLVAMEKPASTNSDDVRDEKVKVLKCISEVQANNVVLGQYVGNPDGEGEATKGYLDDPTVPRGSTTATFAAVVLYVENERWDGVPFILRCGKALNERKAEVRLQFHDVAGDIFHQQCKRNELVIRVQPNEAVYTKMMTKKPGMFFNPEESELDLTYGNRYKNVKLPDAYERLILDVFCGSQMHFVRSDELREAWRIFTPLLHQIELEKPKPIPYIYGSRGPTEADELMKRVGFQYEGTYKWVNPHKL

Caspase-3 = molecular target: T3, Caspase-3 (Homo sapiens, UniProt P42574); type: functional;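 further: Dose-response selectivity test against caspase-3 for candidate inhibitors of sentrin-specific proteases (SENPs)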
T3 sequence (P42574 whole entry): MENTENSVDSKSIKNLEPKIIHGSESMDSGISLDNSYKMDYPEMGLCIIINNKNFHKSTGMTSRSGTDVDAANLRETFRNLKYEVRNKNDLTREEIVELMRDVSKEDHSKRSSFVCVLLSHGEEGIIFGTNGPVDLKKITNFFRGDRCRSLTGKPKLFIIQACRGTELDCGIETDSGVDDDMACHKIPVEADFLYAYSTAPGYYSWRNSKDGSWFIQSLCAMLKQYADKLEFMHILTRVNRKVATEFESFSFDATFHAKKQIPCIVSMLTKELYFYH

[6] = molecular target: T4, Sentrin-specific protease 7 (Homo sapiens, UniProt Q9BQF6); type: functional;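 further: Luminescence-based dose-response confirmation of ultra-high-throughput screening hits, measuring inhibition of SENP7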
T4 sequence (Q9BQF6 whole entry): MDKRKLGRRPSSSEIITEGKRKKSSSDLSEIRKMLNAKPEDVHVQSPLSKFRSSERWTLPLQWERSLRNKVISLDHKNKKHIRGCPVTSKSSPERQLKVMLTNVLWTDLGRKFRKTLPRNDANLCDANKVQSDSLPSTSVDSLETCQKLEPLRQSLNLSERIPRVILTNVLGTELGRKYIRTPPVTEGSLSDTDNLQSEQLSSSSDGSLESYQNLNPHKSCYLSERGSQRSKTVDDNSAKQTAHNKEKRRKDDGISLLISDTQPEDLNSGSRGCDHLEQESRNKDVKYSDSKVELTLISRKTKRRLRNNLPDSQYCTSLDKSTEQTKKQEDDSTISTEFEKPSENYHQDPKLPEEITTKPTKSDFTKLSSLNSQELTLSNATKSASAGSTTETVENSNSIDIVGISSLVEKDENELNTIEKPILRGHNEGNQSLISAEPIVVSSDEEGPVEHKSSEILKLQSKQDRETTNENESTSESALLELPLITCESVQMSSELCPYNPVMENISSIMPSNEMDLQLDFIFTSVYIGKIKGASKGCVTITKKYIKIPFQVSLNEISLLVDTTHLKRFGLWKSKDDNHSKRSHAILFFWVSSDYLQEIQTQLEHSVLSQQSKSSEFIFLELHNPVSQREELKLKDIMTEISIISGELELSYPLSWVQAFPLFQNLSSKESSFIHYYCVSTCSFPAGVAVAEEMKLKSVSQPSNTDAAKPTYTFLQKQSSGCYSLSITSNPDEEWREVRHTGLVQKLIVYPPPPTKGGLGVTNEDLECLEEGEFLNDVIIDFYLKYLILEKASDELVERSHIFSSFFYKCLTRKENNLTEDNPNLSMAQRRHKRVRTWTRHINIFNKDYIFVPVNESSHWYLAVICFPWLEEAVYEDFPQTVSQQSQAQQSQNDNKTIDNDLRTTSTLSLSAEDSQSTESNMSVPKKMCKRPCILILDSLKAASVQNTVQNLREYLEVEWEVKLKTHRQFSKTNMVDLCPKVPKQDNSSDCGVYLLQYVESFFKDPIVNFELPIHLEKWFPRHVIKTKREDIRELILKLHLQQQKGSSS

[7] = molecular target: T5, Sentrin-specific protease 6 (Homo sapiens, UniProt Q9GZR1); type: functional;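 further: Luminescence-based dose-response confirmatory assay of SENP6 inhibition, following up an ultra-high-throughput screen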
T5 sequence (Q9GZR1 whole entry): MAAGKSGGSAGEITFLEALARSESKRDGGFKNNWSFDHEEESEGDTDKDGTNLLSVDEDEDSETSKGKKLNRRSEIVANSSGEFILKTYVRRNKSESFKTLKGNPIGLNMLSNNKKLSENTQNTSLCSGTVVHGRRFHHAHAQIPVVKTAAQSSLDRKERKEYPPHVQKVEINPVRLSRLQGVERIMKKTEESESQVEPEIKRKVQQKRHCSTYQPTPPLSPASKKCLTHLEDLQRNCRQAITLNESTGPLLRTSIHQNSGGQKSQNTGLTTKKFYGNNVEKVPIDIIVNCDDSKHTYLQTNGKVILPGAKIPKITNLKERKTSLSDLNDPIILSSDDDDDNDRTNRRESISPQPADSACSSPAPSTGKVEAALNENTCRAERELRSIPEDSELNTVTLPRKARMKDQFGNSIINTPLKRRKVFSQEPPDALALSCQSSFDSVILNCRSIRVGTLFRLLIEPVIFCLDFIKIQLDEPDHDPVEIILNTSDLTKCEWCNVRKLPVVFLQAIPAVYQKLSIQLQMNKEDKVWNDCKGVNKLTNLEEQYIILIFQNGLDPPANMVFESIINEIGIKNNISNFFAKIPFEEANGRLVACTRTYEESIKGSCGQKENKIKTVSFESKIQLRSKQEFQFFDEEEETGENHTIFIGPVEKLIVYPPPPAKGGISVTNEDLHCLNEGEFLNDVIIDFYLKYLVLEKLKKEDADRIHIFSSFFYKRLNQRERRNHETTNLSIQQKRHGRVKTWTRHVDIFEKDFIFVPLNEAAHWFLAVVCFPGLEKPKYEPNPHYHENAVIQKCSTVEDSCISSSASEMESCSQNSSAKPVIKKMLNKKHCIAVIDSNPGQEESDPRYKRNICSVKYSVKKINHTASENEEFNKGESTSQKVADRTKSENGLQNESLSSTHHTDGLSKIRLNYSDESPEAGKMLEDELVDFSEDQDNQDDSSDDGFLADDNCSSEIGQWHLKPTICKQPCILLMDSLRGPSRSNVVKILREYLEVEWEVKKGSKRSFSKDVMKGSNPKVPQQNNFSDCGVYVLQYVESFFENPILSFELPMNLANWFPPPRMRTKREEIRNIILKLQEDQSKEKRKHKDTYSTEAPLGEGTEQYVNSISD

[8] = molecular target: T6, Sentrin-specific protease 8 (Homo sapiens, UniProt Q96LD8); type: functional;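 further: luminescence read-out of SENP8 inhibition, dose-response confirmation following an ultra-high-throughput screen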
T6 sequence (Q96LD8 whole entry): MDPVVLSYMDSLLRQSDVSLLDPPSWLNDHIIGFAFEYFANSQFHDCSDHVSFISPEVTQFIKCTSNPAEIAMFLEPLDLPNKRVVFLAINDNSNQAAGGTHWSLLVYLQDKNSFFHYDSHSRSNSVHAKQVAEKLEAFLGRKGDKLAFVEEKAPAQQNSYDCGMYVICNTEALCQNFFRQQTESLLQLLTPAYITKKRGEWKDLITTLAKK

Cytochrome P450 2C19 = Cytochrome P450 2C19 (Homo sapiens, UniProt P33261); assay: Cytochrome panel assay with activity outcomes. Panel member name: p450-cyp2c19 Compounds with AC50 equal or less than 10 uM are considered active; type: functional; details: read-out: AC50
Chain of Cytochrome P450 2C19 (P33261 whole entry): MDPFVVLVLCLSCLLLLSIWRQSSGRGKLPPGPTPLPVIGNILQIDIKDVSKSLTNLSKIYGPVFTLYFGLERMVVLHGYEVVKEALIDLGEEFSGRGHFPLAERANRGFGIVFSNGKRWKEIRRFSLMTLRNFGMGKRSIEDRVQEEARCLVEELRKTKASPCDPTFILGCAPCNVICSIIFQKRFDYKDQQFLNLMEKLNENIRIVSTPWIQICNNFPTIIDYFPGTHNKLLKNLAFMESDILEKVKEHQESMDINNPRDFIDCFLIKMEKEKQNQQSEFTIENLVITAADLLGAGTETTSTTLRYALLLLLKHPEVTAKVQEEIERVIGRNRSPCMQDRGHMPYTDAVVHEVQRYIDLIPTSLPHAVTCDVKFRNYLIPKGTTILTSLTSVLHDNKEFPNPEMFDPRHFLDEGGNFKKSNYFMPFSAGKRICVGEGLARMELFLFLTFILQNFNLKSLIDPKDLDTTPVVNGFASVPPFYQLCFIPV

Cytochrome P450 2D6 = Cytochrome P450 2D6 (Homo sapiens, UniProt P10635);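 further: CYP2D6 member of a cytochrome P450 panel assay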
Chain of Cytochrome P450 2D6 (P10635 whole entry): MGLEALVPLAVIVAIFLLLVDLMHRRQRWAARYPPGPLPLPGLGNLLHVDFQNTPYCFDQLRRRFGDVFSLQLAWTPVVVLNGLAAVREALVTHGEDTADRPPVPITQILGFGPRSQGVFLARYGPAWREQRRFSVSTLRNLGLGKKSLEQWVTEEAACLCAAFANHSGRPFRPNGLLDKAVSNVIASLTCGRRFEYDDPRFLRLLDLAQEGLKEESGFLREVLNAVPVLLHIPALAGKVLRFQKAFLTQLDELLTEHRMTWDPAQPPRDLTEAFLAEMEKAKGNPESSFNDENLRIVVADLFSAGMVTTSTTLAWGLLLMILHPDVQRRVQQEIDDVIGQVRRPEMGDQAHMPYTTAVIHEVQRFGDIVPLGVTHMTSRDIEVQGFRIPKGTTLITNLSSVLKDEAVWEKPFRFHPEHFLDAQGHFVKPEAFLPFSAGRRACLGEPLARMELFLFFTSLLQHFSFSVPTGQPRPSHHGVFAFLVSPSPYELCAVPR

[9] = Shn3 3'UTR reporter inhibitors, dose response, cell-based, Clone20 osteoblasts, firefly luciferase, cherry-picked (AID 624132); type: functional;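 further: firefly luciferase luminescence from reporter carrying the Shn3 3'UTR in osteoblasts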
[10] = control 3'UTR Renilla luciferase suppression, dose response, counter-screen for Shn3 inhibitor project, cell-based, Clone20-Shn3RL, cherry-picked (AID 624133); type: functional

COc1ccccc1N1CCN(CCCNC(=O)Nc2ccccc2)CC1
EC50 [1]: 1.88 µM (active)

CN1c2ccccc2N(C)C1(C)c1cccc2ccccc12
EC50 [2]: 0.544 µM (active) | EC50 [3]: > 30 µM (not active) | IC50 (Nonstructural protein 1): 39.3 µM (active)

CN(C)c1ccc(CN2CC=C(c3ccc(F)cc3)CC2)cc1
IC50 (Nonstructural protein 1): 50.2 µM (active) | AC50 [4]: > 20 µM (inactive)

COc1cc(CNc2ccc3[nH]c(O)nc3c2)ccc1OCc1ccccc1
IC50 [5]: > 80 µM (inactive)

COc1cc(O)c(C(CCN2CCN(c3ccccc3)CC2)c2ccc(N(C)C)cc2)c(OC)c1 (configuration not stated)
IC50 (Nonstructural protein 1): 18.2 µM (active)

COc1ccc(COc2ccc3c(C)cc(=O)oc3c2)cc1
IC50 (Caspase-3): 20 µM (active) | IC50 [6]: 9.04 µM (active) | IC50 [7]: 21.6 µM (active) | IC50 [8]: 32.3 µM (active)

CCC(O)(c1ccc(OC)cc1)C(CN1CCOCC1)c1ccccc1 (configuration not stated)
EC50 [1]: 5.96 µM (active)

O=C(CSc1nnc(-c2ccc(Cl)cc2Cl)n1C1CCCCC1)NC1CCS(=O)(=O)C1 (configuration not stated)
EC50 [1]: 1.68 µM (active) | AC50 (Cytochrome P450 2C19): 39.8 µM (inconclusive) | AC50 (Cytochrome P450 2D6): 35.5 µM (inconclusive)

C=CCN1CCN(C(c2cccc(OC)c2OC)c2nnnn2CCC(C)C)CC1 (configuration not stated)
EC50 [1]: 1.68 µM (active)

Fc1ccccc1COc1ccc(Br)cc1CNCC1CCCO1 (configuration not stated)
EC50 [1]: 0.944 µM (active)

O=[N+]([O-])c1ccc(C[n+]2cccc3ccc4cccnc4c32)cc1
IC50 (Nonstructural protein 1): 7.75 µM (active)

O=C(CSc1nnc(-c2ccc(Cl)cc2Cl)n1C1CCCCC1)N1CCCC1
EC50 [1]: 2.37 µM (active) | AC50 [9]: > 70 µM (inactive) | AC50 [10]: 23 µM (active)
